Laboratory results reported in US8956824B2, “Methods for identifying allosteric modulators of ship polypeptides” (British Columbia Cancer Agency Branch, priority 2006, dated 2015).
Entries after “also recorded” stand apart in the source; their conditions may differ.

What was measured:
[1] = tested on: SHIP1+/+ and SHIP1−/− BMmφs; experiment: LPS-stimulated TNFα production in BMmφs; assay type: cell-based, mouse; details: 30 min pretreatment, 10 ng/mL LPS, ELISA
Procedure: Production of SHIP+/+ and SHIP-/- BMMCs and BMnφs. […] LPS stimulation of BMmφs. For the analysis of LPS-stimulated TNFα production, 2 ×10^5 cells were plated the night before in 24 well plates in BMmφp medium. […] Data are expressed as the mean +/- SEM of triplicates and experiments were repeated 3 times. For analysis of intracellular signaling, 2×10^6 cells were plated the night before in 6 cm tissue culture plates. […] Cells were washed with 4° C. PBS and resuspended in lysis buffer (50 mM Hepes, 2 mM EDTA, 1mM NaVO4 , 100 mM NaF, 50 mM NaPPi and 1%NP4O) supplemented with COMPLETETM Protease Inhibitor Cocktail (Roche, Montreal, Canada). Lysates were rocked at 4° C. for 30 min and clarified by centrifuging 20 min at 12000×g. Lysates were then made 1× in Laemmli's buffer, boiled 2 min and loaded onto 7.5% SDS polyacrylamide […]. Immunoblot analysis for phospho PKB (Cell Signalling, Mississauga, Ont), SHIP1 and actin (Santa Cruz, Santa Cruz, Calif.) were carried out as described previously (18). Results are representative of 3 independent experiments.

[2] = target: T1, SHIP1 enzyme (Mus musculus, UniProt Q9ES52); experiment: In vitro SHIP enzyme assay, wild-type SHIP1; assay type: biochemical; details: for SHIP1 enzyme activity in vitro (activation): FIG. 1A / 3B; for activation of wild-type SHIP1 enzyme by allosteric activators: PI-3,4-P2 20 μM, AQX-MN100 80 μg/mL=250 μM, 30 μM IP4, FIG. 4B
T1 construct: Full length, wild-type SHIP1 enzyme (wt); made in house; host or cells: 293T cells, transient transfection with pME18S-His-SHIP
T1 sequence (Q9ES52 1-1191): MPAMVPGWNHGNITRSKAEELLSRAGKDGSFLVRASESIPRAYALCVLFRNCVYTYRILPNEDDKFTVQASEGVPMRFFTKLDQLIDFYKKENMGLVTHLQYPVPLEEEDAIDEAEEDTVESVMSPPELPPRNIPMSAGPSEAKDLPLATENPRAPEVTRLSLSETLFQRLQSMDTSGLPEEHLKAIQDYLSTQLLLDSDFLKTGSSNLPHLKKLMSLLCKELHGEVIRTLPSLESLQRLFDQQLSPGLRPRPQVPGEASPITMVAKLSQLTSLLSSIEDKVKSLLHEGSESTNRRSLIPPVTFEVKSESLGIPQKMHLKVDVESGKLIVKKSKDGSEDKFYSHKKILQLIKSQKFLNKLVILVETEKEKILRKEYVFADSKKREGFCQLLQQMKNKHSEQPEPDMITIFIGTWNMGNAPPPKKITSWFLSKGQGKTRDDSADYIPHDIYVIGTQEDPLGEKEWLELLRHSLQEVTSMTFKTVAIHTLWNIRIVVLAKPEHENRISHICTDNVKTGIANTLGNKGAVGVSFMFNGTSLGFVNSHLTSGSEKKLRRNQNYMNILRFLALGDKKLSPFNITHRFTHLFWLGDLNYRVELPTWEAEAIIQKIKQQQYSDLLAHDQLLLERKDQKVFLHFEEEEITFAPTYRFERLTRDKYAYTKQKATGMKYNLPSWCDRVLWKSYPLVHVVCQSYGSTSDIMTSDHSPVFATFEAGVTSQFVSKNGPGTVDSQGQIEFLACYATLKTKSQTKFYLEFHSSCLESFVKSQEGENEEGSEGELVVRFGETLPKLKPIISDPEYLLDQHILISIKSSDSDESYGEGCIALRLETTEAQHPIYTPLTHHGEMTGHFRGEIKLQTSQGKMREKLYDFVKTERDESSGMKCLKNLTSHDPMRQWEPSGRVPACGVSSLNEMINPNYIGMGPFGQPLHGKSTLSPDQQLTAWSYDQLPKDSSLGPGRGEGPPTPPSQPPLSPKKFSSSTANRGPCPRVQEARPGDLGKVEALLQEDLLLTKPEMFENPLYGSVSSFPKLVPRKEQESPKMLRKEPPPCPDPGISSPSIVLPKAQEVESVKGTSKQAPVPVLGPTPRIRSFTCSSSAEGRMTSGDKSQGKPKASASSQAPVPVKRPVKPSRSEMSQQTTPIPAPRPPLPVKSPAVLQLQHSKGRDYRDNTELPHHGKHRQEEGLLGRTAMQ
Description: Production of recombinant SHIP1 enzyme and SHIP1 C2 and PH domains: Recombinant, N-terminal His6 tagged SHIP1 enzyme was expressed in mammalian 293T cells by transient transfection with pME18S-His-SHIP plasmid and purified to >95% homogeneity by Nichelating bead chromatography (Qiagen, Mississauga, Ontario) as assessed by Coomassie Blue visualization of sodium dodecyl sulfate-polyacrylamide gel electrophoresis (SDS-PAGE) separated material. Recombinant SHIP1 C2 domain (amino acid residues 725 to 863) or SHIP1 PH domain (amino acid residues 984-1319) were expressed in E. coli transformed with a pET28C expression vector constructed as described herein. Cultures were induced overnight with 1 mM IPTG, and protein purified from the cell lysates by Ni-chelating bead chromatography was >95% pure by SDS-PAGE analysis.
In vitro SHIP enzyme assay. The SHIP enzyme assay was performed in 96-well microtitre plates with 10 ng of enzyme/well in a total volume of 25 μL of 20 mM Tris HCl, pH 7.5 and 10 mM MgCl2. […] The reaction was allowed to proceed for 20 min at 37° C. and the amount of inorganic phosphate released assessed by the addition of Malachite Green reagent followed by an absorbance measurement at 650 nm (15). SHIP2 enzyme was purchased from Echelon Biosciences (Salt Lake City, Utah) and an equivalent amount of inositol phosphatase activity was used in the in vitro enzyme assay. Enzyme data are expressed as the mean of triplicates+/−SEM. Experiments were performed at least 3 times.

Compound: Cc1cc(O)c(O)c2c1[C@]1(C)CC[C@H]3C(C)(C)CCC[C@]3(C)[C@H]1C2 [AQX-016A]
- LPS-stimulated TNFα production, SHIP1+/+ vs SHIP1−/− macrophages [1]: preferentially inhibited LPS-stimulated TNFα production in SHIP1+/+ than in SHIP1−/−
- activation of SHIP1 relative to Pelorol ([2]; 40 μg/mL, FIG. 1A): 3 fold
- SHIP1 enzyme activity in vitro (activation) [2]: increases SHIN enzyme activity in vitro and in vivo

Compound: Cc1cc(O)cc2c1[C@]1(C)CC[C@H]3C(C)(C)CCC[C@]3(C)[C@H]1C2 [AQX-MN100]
- LPS-stimulated TNFα production, SHIP1+/+ vs SHIP1−/− macrophages [1]: selectively inhibited TNFα production from SHIP1+/+ but not SHIP1−/− macrophages; also recorded: inhibits TNFα production from LPS stimulated SHIP1+/+ but not −/− BMmφs
- enhancement of SHIP1 enzyme activity ([2]; % change relative to vehicle control, 2 μM final concentration, FIGS. 8A-B): ~500%
- SHIP1 enzyme activity in vitro (activation) [2]: enhanced SHIP1 enzyme activity in vitro; also recorded: activates SHIP enzyme activity in vitro
- activation of wild-type SHIP1 enzyme by allosteric activators [2]: activated SHIP to the same extent; also recorded: enhanced

Compound: phosphatidylinositol-3,4-bisphosphate [PI-3,4-P2, reference compound]
- activation of wild-type SHIP1 enzyme by allosteric activators [2]: activated SHIP to the same extent as AQX-MN100
- activation of wild-type SHIP1 enzyme by allosteric activators ([2]; listed as PI(3,4)P2): enhanced
